How the values were obtained:
p16^INK4a = test: mRNA expression by conventional RT-PCR; format: cell-based, Human
Experimental: (§1) Conventional RT-PCR was also performed to assess the mRNA expression of p14^ARF 27, p16^INK4a 28, hMLH1^29, DNMT-1^30 and DNMT-3b^31. cDNA was generated with random hexamers using 2 μg of RNA. The PCR was performed as previously reported^32. β-actin was used as an endogenous control. The statistical significance of differences between the experimental points or between groups was analyzed using Student's t-test; and differences were considered significant when P<0.05.

p14^ARF = test: mRNA expression by conventional RT-PCR; format: cell-based, Human
Experimental: as §1

Question: Which results are given for `Nc1ncn([C@H]2C[C@H](O)[C@@H](CO)O2)c(=O)n1` [5-aza-2dC, 5-aza-2′deoxycytidine]?
Answer: p16^INK4a RNA transcripts (p16^INK4a; RKO): re-expression; p16^INK4a RNA transcripts (p16^INK4a; SW48 cells): appearance of RNA transcripts; p14^ARF RNA transcripts (p14^ARF; RKO): re-expression; p14^ARF RNA transcripts (p14^ARF; SW48 cells): appearance of RNA transcripts

Reference: US20090076131A1, “Anti-Cancer and Anti-Inflammatory Effects of Annurca Apple Extracts and Compositions Purified Therefrom” (BAYLOR RESEARCH INSTITUTE, priority 2007, published 2009)
